Test results from US11655235B2, “Pyrrolidine and piperidine compounds” (YUHAN CORPORATION, priority 2019, dated 2023).

Experiments:
Recombinant human FAP = biological target: T1, Recombinant human FAP (Homo sapiens, UniProt Q12884); experiment: FAP inhibition, fluorogenic substrate Z-Gly-Pro-AMC; format: biochemical; settings: for IC50: 25° C., Z-Gly-Pro-AMC substrate; for inhibition at 1 µM: read-out: hFAP inhibition % at 1 μM
T1 construct: purchased R&D systems
T1 sequence (Q12884 1-760): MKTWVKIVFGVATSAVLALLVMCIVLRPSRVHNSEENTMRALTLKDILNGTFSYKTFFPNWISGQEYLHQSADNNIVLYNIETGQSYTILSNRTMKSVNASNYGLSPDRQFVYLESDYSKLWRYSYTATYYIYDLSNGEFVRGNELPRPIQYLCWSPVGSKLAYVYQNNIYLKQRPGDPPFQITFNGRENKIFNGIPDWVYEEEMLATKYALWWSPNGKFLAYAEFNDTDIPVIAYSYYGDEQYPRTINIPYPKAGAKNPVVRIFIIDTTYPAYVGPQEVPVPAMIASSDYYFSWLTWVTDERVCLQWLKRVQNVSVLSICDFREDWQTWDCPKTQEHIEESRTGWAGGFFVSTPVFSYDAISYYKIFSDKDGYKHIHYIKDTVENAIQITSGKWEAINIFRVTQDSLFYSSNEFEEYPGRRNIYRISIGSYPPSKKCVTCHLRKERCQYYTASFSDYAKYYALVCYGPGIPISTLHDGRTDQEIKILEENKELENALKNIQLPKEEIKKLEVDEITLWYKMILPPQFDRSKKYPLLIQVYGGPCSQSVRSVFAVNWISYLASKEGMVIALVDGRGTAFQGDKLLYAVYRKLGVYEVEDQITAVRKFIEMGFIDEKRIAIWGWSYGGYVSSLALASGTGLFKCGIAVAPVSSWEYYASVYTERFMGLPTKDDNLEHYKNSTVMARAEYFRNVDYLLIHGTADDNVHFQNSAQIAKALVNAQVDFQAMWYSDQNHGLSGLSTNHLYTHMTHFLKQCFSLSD
Description: The compounds according to the present technology were evaluated in terms of the inhibitory effect on the activity of dipeptidyl peptidases including FAP by using a substrate producing fluorescent substances upon enzymatic decomposition. The test was conducted at 25° C. to get a final reaction volume of 100 μL in a 96 black well plate. […] Briefly, the test compounds were dissolved in dimethyl sulfoxide (DMSO) at a concentration of 20 mM and then subjected to serial dilution, thereby creating an 8 point curve. As for the control group, a 6 point curve created by serial dilution of Talabostat in the same buffer solution was used. Fluorescence intensity was measured using a microplate reader (Flexstation3, Molecular Devices) under the wavelength condition exciting at 380 nm and reading the emission at 460 nm. The inhibitory effect of the test compounds was measured as a decrease (%) in the signal rate as compared to the control group without any inhibitor. Data was fixed to a logistic model with four variables and IC50 value was calculated using GraphPad Prism program. Recombinant human FAP (R&D systems) was diluted with 50 mM tris (pH 7.5) buffer comprising 1 M of sodium chloride and 1 mg/ml of bovine serum albumin (BSA) to be 10 ng per final reaction. The test compounds were subjected to serial dilution in a buffer under the condition containing up to 0.1% of DMSO. Z-Gly-Pro-AMC (Bachem) was used as a substrate. By dissolving in DMSO and then diluting in the same buffer, the substrate was added to be […] per final reaction.

DPP4 = DPP4 (Homo sapiens, UniProt P27487); experiment: DPP4 inhibition, fluorogenic substrate H-Gly-Pro-AMC; format: biochemical; set-up: purchased R&D Systems; settings: for inhibition at 1 µM: read-out: hDPP4 inhibition % at 1 μM
Description: The compounds according to the present technology were evaluated in terms of the inhibitory effect on the activity of dipeptidyl peptidases including FAP by using a substrate producing fluorescent substances upon enzymatic decomposition. The test was conducted at 25° C. to get a final reaction volume of 100 μL in a 96 black well plate. […] Briefly, the test compounds were dissolved in dimethyl sulfoxide (DMSO) at a concentration of 20 mM and then subjected to serial dilution, thereby creating an 8 point curve. As for the control group, a 6 point curve created by serial dilution of Talabostat in the same buffer solution was used. Fluorescence intensity was measured using a microplate reader (Flexstation3, Molecular Devices) under the wavelength condition exciting at 380 nm and reading the emission at 460 nm. The inhibitory effect of the test compounds was measured as a decrease (%) in the signal rate as compared to the control group without any inhibitor. Data was fixed to a logistic model with four variables and IC50 value was calculated using GraphPad Prism program. As for recombinant human DPP4 (R&D Systems), 25 mM tris (pH 8.0) buffer as a buffer solution and H-Gly-Pro-AMC (Bachem) as a substrate were used. As for recombinant human DPP7 (R&D Systems), 25 mM MES (pH 6.0) buffer as a buffer solution and Lys-Pro-AMC (Bachem) as a substrate were used. As for recombinant human DPP8 (PBS Bioscience), as a buffer solution, a 10 mM tris (pH 7.4) buffer comprising 10 mM of magnesium chloride and 0.05% of Tween 20, and Z-Ala-Pro-AMC (BPS Bioscience) as a substrate were used. As for recombinant human DPP9 (R&D Systems), a 25 mM tris (pH 8.0) buffer as a buffer solution and H-Gly-Pro-AMC (Bachem) as a substrate were used. As for recombinant human PREP (R&D System), as a buffer solution, a 25 mM tris (pH 7.5) buffer comprising 250 mM sodium chloride and 2.5 mM DTT (Dithiolthreitol), and Z-Gly-Pro-AMC (Bachem) as a substrate were used. The evaluation was made by using 10 ng of DPP4, PDD7, and PREP, 20 ng of DPP8, and 50 ng of DPP9 based on the final reaction. In the evaluation of DPP4, the test compounds were subjected to serial dilution in a buffer under the condition containing up to 0.1% of DMSO. In the evaluation of DPP7, DPP8, DPP9, and PREP, the test compounds were subjected to serial dilution in each buffer under the condition containing up to 0.5% of DMSO.

Sequence of DPP4 (P27487 whole entry): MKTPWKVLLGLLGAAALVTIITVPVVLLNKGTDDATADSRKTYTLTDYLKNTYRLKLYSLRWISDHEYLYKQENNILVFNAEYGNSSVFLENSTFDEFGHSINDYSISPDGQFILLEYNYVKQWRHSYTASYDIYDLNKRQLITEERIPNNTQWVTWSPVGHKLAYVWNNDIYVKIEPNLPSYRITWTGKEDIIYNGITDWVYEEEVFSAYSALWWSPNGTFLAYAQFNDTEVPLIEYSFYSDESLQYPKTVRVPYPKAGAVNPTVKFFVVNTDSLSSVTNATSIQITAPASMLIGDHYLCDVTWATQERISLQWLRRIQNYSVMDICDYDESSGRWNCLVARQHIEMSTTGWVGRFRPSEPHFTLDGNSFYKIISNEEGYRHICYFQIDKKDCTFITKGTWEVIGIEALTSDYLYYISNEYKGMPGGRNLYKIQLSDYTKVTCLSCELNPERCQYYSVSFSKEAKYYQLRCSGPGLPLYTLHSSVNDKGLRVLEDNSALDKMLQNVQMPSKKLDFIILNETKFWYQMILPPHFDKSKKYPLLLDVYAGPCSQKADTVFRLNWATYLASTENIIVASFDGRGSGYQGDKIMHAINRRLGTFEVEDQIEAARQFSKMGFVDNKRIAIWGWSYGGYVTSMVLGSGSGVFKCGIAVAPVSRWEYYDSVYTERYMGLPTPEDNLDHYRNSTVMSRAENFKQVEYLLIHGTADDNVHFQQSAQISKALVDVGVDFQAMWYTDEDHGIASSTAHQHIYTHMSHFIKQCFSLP

| IC50 (Recombinant human FAP) | hDPP4 inhibition % at 1 μM (DPP4) | inhibition at 1 µM (Recombinant human FAP) | inhibition at 1 µM (DPP4) | SMILES |
| --- | --- | --- | --- | --- |
| 191 nM | No inhibition** | – | – | N#C[C@@H]1CCCN1C(=O)CN1CC[C@H](NC(=O)c2cccc3cccnc23)C1 [Example 34, N—((S)-1-(2-((S)-2-cyanopyrrolidin-1-yl)-2-oxoethyl)pyrrolidin-3-yl)quinoline-8-carboxamide] |
| – | No inhibition** | 76.1% | – | N#C[C@@H]1CCCN1C(=O)CN1CC[C@H](NC(=O)c2nccc3ccccc23)C1 [Example 35, N—((S)-1-(2-((S)-2-cyanopyrrolidin-1-yl)-2-oxoethyl)pyrrolidin-3-yl)isoquinoline-1-carboxamide] |
| 170 nM | No inhibition** | – | – | N#C[C@@H]1CCCN1C(=O)CN1CC[C@H](NC(=O)Cc2cccc3ccccc23)C1 [Example 38, N—((S)-1-(2-((S)-2-cyanopyrrolidin-1-yl)-2-oxoethyl)pyrrolidin-3-yl)-2-(naphthalen-1-yl)acetamide] |
| – | – | 68.1% | 0.4% | N#C[C@@H]1CCCN1C(=O)CN1CC[C@H](NC(=O)c2ccccc2-c2ccccc2)C1 [Example 39, N—((S)-1-(2-((S)-2-cyanopyrrolidin-1-yl)-2-oxoethyl)pyrrolidin-3-yl)-[1,1′-biphenyl]-2-carboxamide] |
| 38.3 nM | – | – | 3.2% | N#C[C@@H]1CCCN1C(=O)CN1CC[C@H](NC(=O)c2cc3ccccc3o2)C1 [Example 40, N—((S)-1-(2-((S)-2-cyanopyrrolidin-1-yl)-2-oxoethyl)pyrrolidin-3-yl)benzofuran-2-carboxamide] |
| – | – | 84.6% | 1.4% | Cc1oc2ccccc2c1C(=O)N[C@H]1CCN(CC(=O)N2CCC[C@H]2C#N)C1 [Example 42, N—((S)-1-(2-((S)-2-cyanopyrrolidin-1-yl)-2-oxoethyl)pyrrolidin-3-yl)-2-methylbenzofuran-3-carboxamide] |
| 30.1 nM | – | – | 1.2% | Cc1cccc2c(C(=O)N[C@H]3CCN(CC(=O)N4CCC[C@H]4C#N)C3)coc12 [Example 45, N—((S)-1-(2-((S)-2-cyanopyrrolidin-1-yl)-2-oxoethyl)pyrrolidin-3-yl)-7-methylbenzofuran-3-carboxamide] |
| 18.8 nM | – | – | 3.7% | COc1cccc2c(C(=O)N[C@H]3CCN(CC(=O)N4CCC[C@H]4C#N)C3)coc12 [Example 47, N—((S)-1-(2-((S)-2-cyanopyrrolidin-1-yl)-2-oxoethyl)pyrrolidin-3-yl)-7-methoxybenzofuran-3-carboxamide] |
| 16.4 nM | No inhibition** | – | – | N#C[C@@H]1CCCN1C(=O)CN1CC[C@H](NC(=O)c2coc3c(F)cccc23)C1 [Example 50, N—((S)-1-(2-((S)-2-cyanopyrrolidin-1-yl)-2-oxoethyl)pyrrolidin-3-yl)-7-fluorobenzofuran-3-carboxamide] |
| 13.6 nM | – | – | 0.5% | Cc1ccc2occ(C(=O)N[C@H]3CCN(CC(=O)N4CCC[C@H]4C#N)C3)c2c1 [Example 52, N—((S)-1-(2-((S)-2-cyanopyrrolidin-1-yl)-2-oxoethyl)pyrrolidin-3-yl)-5-methylbenzofuran-3-carboxamide] |
| 17.7 nM | – | – | 1.3% | Cc1ccc2c(C(=O)N[C@H]3CCN(CC(=O)N4CCC[C@H]4C#N)C3)coc2c1 [Example 53, N—((S)-1-(2-((S)-2-cyanopyrrolidin-1-yl)-2-oxoethyl)pyrrolidin-3-yl)-6-methylbenzofuran-3-carboxamide] |
| 20 nM | – | – | 1.1% | N#C[C@@H]1CCCN1C(=O)CN1CC[C@H](NC(=O)c2cccc3occc23)C1 [Example 55, N—((S)-1-(2-((S)-2-cyanopyrrolidin-1-yl)-2-oxoethyl)pyrrolidin-3-yl)benzofuran-4-carboxamide] |
| 45.2 nM | – | – | 2.4% | N#C[C@@H]1CCCN1C(=O)CN1CC[C@H](NC(=O)c2ccc3occc3c2)C1 [Example 56, N—((S)-1-(2-((S)-2-cyanopyrrolidin-1-yl)-2-oxoethyl)pyrrolidin-3-yl)benzofuran-5-carboxamide] |
| 62.5 nM | No inhibition** | – | – | N#C[C@@H]1CCCN1C(=O)CN1CC[C@H](NC(=O)c2cccc3ccoc23)C1 [Example 58, N—((S)-1-(2-((S)-2-cyanopyrrolidin-1-yl)-2-oxoethyl)pyrrolidin-3-yl)benzofuran-7-carboxamide] |
| – | No inhibition** | 33.4% | – | N#C[C@@H]1CCCN1C(=O)CN1CC[C@H](NS(=O)(=O)c2cc3ccccc3o2)C1 [Example 59, N—((S)-1-(2-((S)-2-cyanopyrrolidin-1-yl)-2-oxoethyl)pyrrolidin-3-yl)benzofuran-2-sulfonamide] |
| – | No inhibition** | 44.2% | – | N#C[C@@H]1CCCN1C(=O)CN1CC[C@H](NS(=O)(=O)c2cc3ccccc3s2)C1 [Example 60, N—((S)-1-(2-((S)-2-cyanopyrrolidin-1-yl)-2-oxoethyl)pyrrolidin-3-yl)benzo[b]thiophene-2-sulfonamide] |
| 75.1 nM | No inhibition** | – | – | N#C[C@@H]1CCCN1C(=O)CN1CC[C@H](Oc2cccc3ccccc23)C1 [Example 62, (S)-1-(2-((S)-3-(naphthalen-1-yloxy)pyrrolidin-1-yl)acetyl)pyrrolidine-2-carbonitrile] |
| 130 nM | No inhibition** | – | – | N#C[C@@H]1CCCN1C(=O)CN1CC[C@H](Oc2ccc3ncccc3c2)C1 [Example 63, (S)-1-(2-((S)-3-(quinolin-6-yloxy)pyrrolidin-1-yl)acetyl)pyrrolidine-2-carbonitrile] |
| – | No inhibition** | 64% | – | N#C[C@@H]1CCCN1C(=O)CN1CC[C@H](Oc2ccc3c(c2)OCO3)C1 [Example 67, (S)-1-(2-((S)-3-(benzo[d][1,3]dioxol-5-yloxy)pyrrolidin-1-yl)acetyl)pyrrolidine-2-carbonitrile] |
| 64.3 nM | – | – | 8% | N#C[C@@H]1CCCN1C(=O)CN1CC[C@H](Oc2cc3ccccc3cn2)C1 [Example 69, (S)-1-(2-((S)-3-(isoquinolin-3-yloxy)pyrrolidin-1-yl)acetyl)pyrrolidine-2-carbonitrile] |
